Measured values: PubChem BioAssay AID1259407 (Chemical Carcinogenesis Research Information System (CCRIS), 2018)
The source made the active and inactive calls. How the calls were made is not given here.

Test system: CCRIS mutagenicity, Ames/micronucleus/aberration tests
Assay: CCRIS mutagenicity studies
[1] = Test System: AMES SALMONELLA TYPHIMURIUM, Strain/Indicator: TA98, Metabolic Activation: NONE, Method: PREINCUBATION

Measured: mutagenic call

CCCCCC(C)=O
inactive: Test System: CHINESE HAMSTER V-79, Strain/Indicator: V-79 (HPRT)/6-THIOGUANINE, Metabolic Activation: NONE, Method: STANDARD PLATE inactive; negative | Test System: CHINESE HAMSTER V-79, Strain/Indicator: V-79 (HPRT)/6-THIOGUANINE, Metabolic Activation: RAT LIVER S-9, Method: STANDARD PLATE inactive; negative

O=C1CC[C@@]2(O)[C@H]3Cc4ccc(O)c5c4[C@@]2(CCN3CC2CC2)[C@H]1O5
active: Test System: UDS HUMAN FIBROBLASTS, Strain/Indicator: THY INCORP (NON-S-PHASE), Metabolic Activation: NONE, Method: AUTORADIOGRAPHY active; positive

C1CCC2CCCCC2C1 (stereo not drawn)
active: End Point: IN VIVO MICRONUCLEUS, Test System: PERIPHERAL BLOOD LYMPHOCYTES, Species: MOUSE, Strain/Sex: B6C3F1/MALE, Route: INHALATION active; positive
inactive: End Point: IN VIVO MICRONUCLEUS, Test System: PERIPHERAL BLOOD LYMPHOCYTES, Species: MOUSE, Strain/Sex: B6C3F1/FEMALE, Route: INHALATION inactive; negative | Test System: AMES SALMONELLA TYPHIMURIUM, Strain/Indicator: TA97, Metabolic Activation: HAMSTER, LIVER, S-9 (10%), AROCLOR 1254, Method: PREINCUBATION inactive; negative | Test System: AMES SALMONELLA TYPHIMURIUM, Strain/Indicator: TA97, Metabolic Activation: HAMSTER, LIVER, S-9 (30%), AROCLOR 1254, Method: PREINCUBATION inactive; negative | Test System: AMES SALMONELLA TYPHIMURIUM, Strain/Indicator: TA97, Metabolic Activation: NONE, Method: PREINCUBATION inactive; negative | Test System: AMES SALMONELLA TYPHIMURIUM, Strain/Indicator: TA97, Metabolic Activation: RAT, LIVER, S-9 (10%), AROCLOR 1254, Method: PREINCUBATION inactive; negative | Test System: AMES SALMONELLA TYPHIMURIUM, Strain/Indicator: TA97, Metabolic Activation: RAT, LIVER, S-9 (30%), AROCLOR 1254, Method: PREINCUBATION inactive; negative | Test System: AMES SALMONELLA TYPHIMURIUM, Strain/Indicator: TA98, Metabolic Activation: HAMSTER, LIVER, S-9 (10%), AROCLOR 1254, Method: PREINCUBATION inactive; negative | Test System: AMES SALMONELLA TYPHIMURIUM, Strain/Indicator: TA98, Metabolic Activation: HAMSTER, LIVER, S-9 (30%), AROCLOR 1254, Method: PREINCUBATION inactive; negative | Test System: AMES SALMONELLA TYPHIMURIUM, Strain/Indicator: TA98, Metabolic Activation: HAMSTER, LIVER, S-9, AROCLOR 1254, Method: STANDARD PLATE inactive; negative | [1] inactive; negative | Test System: AMES SALMONELLA TYPHIMURIUM, Strain/Indicator: TA98, Metabolic Activation: NONE, Method: STANDARD PLATE inactive; negative | Test System: AMES SALMONELLA TYPHIMURIUM, Strain/Indicator: TA98, Metabolic Activation: RAT, LIVER, S-9 (10%), AROCLOR 1254, Method: PREINCUBATION inactive; negative | Test System: AMES SALMONELLA TYPHIMURIUM, Strain/Indicator: TA98, Metabolic Activation: RAT, LIVER, S-9 (30%), AROCLOR 1254, Method: PREINCUBATION inactive; negative | Test System: AMES SALMONELLA TYPHIMURIUM, Strain/Indicator: TA98, Metabolic Activation: RAT, LIVER, S-9, AROCLOR 1254, Method: STANDARD PLATE inactive; negative | Test System: AMES SALMONELLA TYPHIMURIUM, Strain/Indicator: TA100, Metabolic Activation: HAMSTER, LIVER, S-9 (10%), AROCLOR 1254, Method: PREINCUBATION inactive; negative | Test System: AMES SALMONELLA TYPHIMURIUM, Strain/Indicator: TA100, Metabolic Activation: HAMSTER, LIVER, S-9 (30%), AROCLOR 1254, Method: PREINCUBATION inactive; negative | Test System: AMES SALMONELLA TYPHIMURIUM, Strain/Indicator: TA100, Metabolic Activation: HAMSTER, LIVER, S-9, AROCLOR 1254, Method: STANDARD PLATE inactive; negative | Test System: AMES SALMONELLA TYPHIMURIUM, Strain/Indicator: TA100, Metabolic Activation: NONE, Method: PREINCUBATION inactive; negative; precipitation occurred at 333 ug/plate | Test System: AMES SALMONELLA TYPHIMURIUM, Strain/Indicator: TA100, Metabolic Activation: NONE, Method: STANDARD PLATE inactive; negative | Test System: AMES SALMONELLA TYPHIMURIUM, Strain/Indicator: TA100, Metabolic Activation: RAT, LIVER, S-9 (10%), AROCLOR 1254, Method: PREINCUBATION inactive; negative | Test System: AMES SALMONELLA TYPHIMURIUM, Strain/Indicator: TA100, Metabolic Activation: RAT, LIVER, S-9 (30%), AROCLOR 1254, Method: PREINCUBATION inactive; negative | Test System: AMES SALMONELLA TYPHIMURIUM, Strain/Indicator: TA100, Metabolic Activation: RAT, LIVER, S-9, AROCLOR 1254, Method: STANDARD PLATE inactive; negative | Test System: AMES SALMONELLA TYPHIMURIUM, Strain/Indicator: TA1535, Metabolic Activation: HAMSTER, LIVER, S-9 (10%), AROCLOR 1254, Method: PREINCUBATION inactive; negative | Test System: AMES SALMONELLA TYPHIMURIUM, Strain/Indicator: TA1535, Metabolic Activation: HAMSTER, LIVER, S-9 (30%), AROCLOR 1254, Method: PREINCUBATION inactive; negative | Test System: AMES SALMONELLA TYPHIMURIUM, Strain/Indicator: TA1535, Metabolic Activation: HAMSTER, LIVER, S-9, AROCLOR 1254, Method: STANDARD PLATE inactive; negative | Test System: AMES SALMONELLA TYPHIMURIUM, Strain/Indicator: TA1535, Metabolic Activation: NONE, Method: PREINCUBATION inactive; negative | Test System: AMES SALMONELLA TYPHIMURIUM, Strain/Indicator: TA1535, Metabolic Activation: NONE, Method: STANDARD PLATE inactive; negative | Test System: AMES SALMONELLA TYPHIMURIUM, Strain/Indicator: TA1535, Metabolic Activation: RAT, LIVER, S-9 (10%), AROCLOR 1254, Method: PREINCUBATION inactive; negative | Test System: AMES SALMONELLA TYPHIMURIUM, Strain/Indicator: TA1535, Metabolic Activation: RAT, LIVER, S-9 (30%), AROCLOR 1254, Method: PREINCUBATION inactive; negative | Test System: AMES SALMONELLA TYPHIMURIUM, Strain/Indicator: TA1535, Metabolic Activation: RAT, LIVER, S-9, AROCLOR 1254, Method: STANDARD PLATE inactive; negative | Test System: AMES SALMONELLA TYPHIMURIUM, Strain/Indicator: TA1537, Metabolic Activation: HAMSTER, LIVER, S-9, AROCLOR 1254, Method: STANDARD PLATE inactive; negative | Test System: AMES SALMONELLA TYPHIMURIUM, Strain/Indicator: TA1537, Metabolic Activation: NONE, Method: STANDARD PLATE inactive; negative | Test System: AMES SALMONELLA TYPHIMURIUM, Strain/Indicator: TA1537, Metabolic Activation: RAT, LIVER, S-9, AROCLOR 1254, Method: STANDARD PLATE inactive; negative | Test System: AMES SALMONELLA TYPHIMURIUM, Strain/Indicator: TA1538, Metabolic Activation: HAMSTER, LIVER, S-9, AROCLOR 1254, Method: STANDARD PLATE inactive; negative | Test System: AMES SALMONELLA TYPHIMURIUM, Strain/Indicator: TA1538, Metabolic Activation: NONE, Method: STANDARD PLATE inactive; negative | Test System: AMES SALMONELLA TYPHIMURIUM, Strain/Indicator: TA1538, Metabolic Activation: RAT, LIVER, S-9, AROCLOR 1254, Method: STANDARD PLATE inactive; negative | Test System: MOUSE LYMPHOMA, Strain/Indicator: L5178Y (TK+/TK-), Metabolic Activation: NONE, Method: SUSPENSION/PLATE inactive; negative. reevaluation of results: negative | Test System: MOUSE LYMPHOMA, Strain/Indicator: L5178Y (TK+/TK-), Metabolic Activation: RAT, LIVER, S-9, AROCLOR 1254, Method: SUSPENSION/PLATE inactive; negative. reevaluation of results: negative

CNC(=O)C=Cc1ccc([N+](=O)[O-])o1
active: [1] active; positive
